Results from a compilation of properties of binary mixtures (doi:10.1016/j.molliq.2012.10.026).

Experiment: xn = mol fraction of the nth substance listed
Conditions: 101 kPa, x1 = 0.5

In the case of `O=C1CCCCCN1` + CCCC[N+](CCCC)(CCCC)CCCC.[Cl-], the electrical conductivity (293.15 K) is reported as 0.0409 S/m, the electrical conductivity (295.65 K) is reported as 0.0459 S/m and the electrical conductivity (298.15 K) is reported as 0.0554 S/m. For the same compound, the electrical conductivity (300.65 K) was 0.0726 S/m, the electrical conductivity (303.15 K) was 0.0934 S/m and the electrical conductivity (305.65 K) was 0.116 S/m. It also gave an electrical conductivity (308.15 K) of 0.142 S/m, an electrical conductivity (310.65 K) of 0.172 S/m and an electrical conductivity (318.15 K) of 0.31 S/m. The electrical conductivity (320.65 K) was 0.368 S/m, the electrical conductivity (323.15 K) was 0.431 S/m and the electrical conductivity (325.65 K) was 0.49 S/m. For the same compound, the electrical conductivity (330.65 K) was 0.61 S/m and the electrical conductivity (333.15 K) was 0.707 S/m.
